The source of these data is patent publication US7718636B2, “Use of 2-methylene-19-nor-20(S)-1alpha,25dihydroxy vitamin d3 to inhibit mammary tumor” (Wisconsin Alumni Research Foundation, priority 2003, dated 2010).

Series [1] is described as follows: Body weight in aged female rats. The series is classed as in vivo. The settings on record: at 7-1/2 months, 5 or 7 ng 2-MD/kg orally each day. An excerpt: (§1) 48 retired female breeder rats of 12 months of age were obtained from the Harlan Sprague-Dawley Company. Upon arrival, the animals were ovariectomized or sham-operated. These animals were housed in individual hanging wire cages and provided water ad libitum. Food consumption was restricted to 19-21 g/day. Animals were maintained on a purified diet described by Suda et al (J. Nutr. 1970) which contained 0.47% calcium and 0.3% phosphorus. In addition, these animals received supplements of vitamin A, E, D, and K as described in the Suda paper. One half of the animals received each day 0.1 ml of Wesson Oil while the remaining one-half of the animals received orally the 0.1 ml of Wesson Oil containing 5 or 7 ng/2-MD/kg body weight. The animals were monitored weekly for body weight, general health and survival. These animals were followed for 7.5 months.

The test system of series [2] is aged, ovariectomized female rats. Briefly: Survival of aged ovariectomized female rats given 2-MD orally each day for 7.5 months. The series is classed as in vivo, rat. The method, then:
Thus, the experiment was carried out as follows:
as §1

Another series relates to calcium from bone. To be noted: compared to 1α,25-dihydroxyvitamin D3; cited from earlier work.

Take `C=C1[C@H](O)CC(=C/C=C2\CCC[C@]3(C)[C@@H]([C@@H](C)CCCC(C)(C)O)CC[C@@H]23)C[C@H]1O` [2-MD, 2-methylene-19-nor-20(S)-1α,25-dihydroxyvitamin D3]: the “Body Weight Final” value in series [1] worked out at 382 ± 10 g. The “survival and general health over the entire period” value in series [2] (5 or 7 ng 2-MD/kg body weight orally each day, 7.5 months) is “survived the entire period and were in good health”. For the same compound, the survival rate in series [2] (aged, ovariectomized female rats, oral 2-MD each day, 7.5 months) came out at 100%. In addition, the “Survival Ratio #premature deaths/total # animals” value in series [2] (ovariectomized or sham-operated retired female breeder rats, 12 months of age, 5 or 7 ng 2-MD/kg body weight orally each day in Wesson Oil, followed for 7.5 months) was 0/24. In addition, the “ability to mobilize calcium from bone” value with calcium from bone is “very high activity”.
